As usually defined, the IC50 is the point on the concentration scale where inhibition reaches its midpoint.

In series [1] the test system is Peripheral blood mononuclear cells (PBMC). Format: cell-based. To be noted: human, 7 days. The method in brief: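 Healthy-donor PBMC stimulated 2 days with 5 µg/mL PHA, then seeded at 1x10^5 cells/well in medium with 20 IU/mL IL-2 and exposed to compound for 7 days. Viability measured by MTS (4 h, OD 490 nm). TD50 interpolated from dose versus percent mortality relative to untreated cells.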

Series [2] concerns HIV-1 reference strain NL4-3. As to the kind of experiment: MonoCycle assay (TZM-bl cells). Format: cell-based. Summed up:
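TZM-bl cells (20,000/well) were infected with NL4-3 in the presence of five-fold serial inhibitor dilutions. After 48 h, cells were lysed and luciferase luminescence (RLU) was counted. IC50 was derived from the RLU data.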

Another series deals with HeLa cells. The experiment in a line: HeLa Proliferation assay (CellTiter Glo). The class given is cell-based. To be noted: 72 hours. The method in brief:
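HeLa cells in phenol red-free DMEM + 10% FBS plated at 2000 cells/well, recovered 4 h, then exposed to compounds for 72 h at 37 °C, 5% CO2. Viability read by CellTiter Glo luminescence.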
A general note: In ATP-based viability assays light output follows the ATP content of the culture.

Another series deals with ARP clone 7400 (NRTI). The experiment in a line: BiCycle assay, resistant viral strain. Format: cell-based, HIV-1. To be noted: IC50 resistant strain / IC50 wild type NL4-3, BiCycle Assay. On the procedure:
(§1) BiCycle Assay is cell based assay allowing the evaluation of the antiviral activity of HIV-1 inhibitors on the whole replication cycle of HIV-1. The assay consists in a first round of infection of the T-cell line MT-2 followed by infection of TZM-bl cells. MT-2 cells were seeded at a concentration of 50,000 cells/well in a 96-well plate and infected with the HIV-1 reference strain NL4-3 in presence of five-fold dilutions of the investigational compounds. After 72 hours, 50 µl of supernatant from each well, containing the virus produced in the first round of infection, were used to infect TZM-bl cells seeded in a 96-plate well at a concentration of 30,000 cells/well. Two days later, cells were lysed adding 40 µl of Glo Lysis Buffer (Promega) to each well for 5 minutes, then 40 µl of Brighy-Glo Luciferase Reagent (Promega) were added to each well for relative luminescence units (RLU) counting using Glo-Max Multi Detection System (Promega). RLU values from each well were elaborated using the GraphPad v5.0 software to calculate the IC50 of each compound.
(§2) The antiviral activity of some of the compounds listed in Table 3 was further evaluated determining the IC50 with viruses carrying resistant mutations that reduce the susceptibility to drugs currently employed in clinical practice to treat HIV infection. The resistant viruses were obtained through the NIH AIDS Reagent Program (www.aidsreagent.org) and have been already characterized by the Phenosense Assay (Monogram Biosciences), considered as the reference assay for phenotypic investigation of HIV drug resistance due to its large application in clinical trials.
(§3) IC50 values of resistant viral strains were determined by using the BiCycle Assay as previously described. The results of the analysis are summarized in Table 6, where fold change values are calculated as the ratio between the IC50 values of resistant HIV-1 strains and the IC50 value of the wild type reference HIV-1 strain NL4-3. Table 6. Fold change values of resistant viral strains

The test system of the next series is ARP clone 12231 (NNRTI). As to the kind of experiment: BiCycle assay, resistant viral strain. Format: cell-based, HIV-1. Conditions: IC50 resistant strain / IC50 wild type NL4-3, BiCycle Assay. On the procedure:
as §1, §2, §3

The subject of a further series is ARP clone 11808 (PI). The experiment in a line: BiCycle assay, resistant viral strain. The class given is cell-based, HIV-1. Conditions: IC50 resistant strain / IC50 wild type NL4-3, BiCycle Assay. As for the experimental part: as §1, §2, §3
The next series has as its system ARP clone 11842 (INI). The experiment in a line: BiCycle assay, resistant viral strain. The class given is cell-based, HIV-1. To be noted: IC50 resistant strain / IC50 wild type NL4-3, BiCycle Assay. As for the experimental part: as §1, §2, §3
The mark [3] stands for this setting: Human immunodeficiency virus 1, NL43, TZM-bl, 48 h, read-out: Mono Cycle IC50 nM.

Read-outs that look alike come from different tables or passages of the source.

As to `C[C@@H](NC(=O)c1nc(-c2cc(Cl)ccn2)nc(O)c1O)C1CCCCC1` [Compound 26, (R)-2-(4-chloropyridin-2-yl)-N-(1-cyclohexylethyl)-5,6-dihydroxypyrimidine-4-carboxamide], the “Proliferation assay PBMC TD50” value in series [1] came out at 2.49 µM. Also, the IC50 in series [2] (setting [3]) amounted to 17600 nM. In addition, the “Proliferation assay HELA TD50” value in the series on HeLa cells was determined as 3.1977 µM. In addition, the “Fold change 7400 (NRTI)” value in the series with ARP clone 7400 (NRTI) is 0.3. For the same molecule, in the series on ARP clone 12231 (NNRTI), the “Fold change 12231 (NNRTI)” value is 0.8. The “Fold change 11808 (PI)” value with ARP clone 11808 (PI) came out at 0.2.

Turning to `Cc1cccnc1-c1nc(O)c(O)c(C(=O)N[C@H](C)C2CCCCC2)n1` [Compound 23, (R)-N-(1-cyclohexylethyl)-5,6-dihydroxy-2-(3-methylpyridin-2-yl)pyrimidine-4-carboxamide], in series [1], the “Proliferation assay PBMC TD50” value is 8.9 µM and the “TD50” value amounted to 8.9 µM. In addition, the IC50 in series [2] (setting [3]) came out at 88500 nM. Also, the “Proliferation assay HELA TD50” value in the series with HeLa cells is 2.3339 µM. The “Fold change 7400 (NRTI)” value with ARP clone 7400 (NRTI) is recorded as 0.7. The “Fold change 12231 (NNRTI)” value with ARP clone 12231 (NNRTI) was 2.8. In the series on ARP clone 11842 (INI), the “Fold change 11842 (INI)” value was found to be 8.6. Also, in the series with ARP clone 11808 (PI), the “Fold change 11808 (PI)” value amounted to 5.1.

As to `O=C(NCC1CCCCC1)c1nc(-c2ccccn2)nc(O)c1O` [Compound 1, N-(cyclohexylmethyl)-5,6-dihydroxy-2-(pyridin-2-yl)pyrimidine-4-carboxamide], the “Proliferation assay PBMC TD50” value in series [1] amounted to 2.6 µM. Moreover, the concentration for half-maximal inhibition (IC50) in series [2] (setting [3]) is over 50000 nM. For the same molecule, in the series on HeLa cells, the “Proliferation assay HELA TD50” value was 3.5857 µM. For the same molecule, in the series with ARP clone 7400 (NRTI), the “Fold change 7400 (NRTI)” value was 0.4. Also, the “Fold change 12231 (NNRTI)” value in the series on ARP clone 12231 (NNRTI) amounted to 1.5. Moreover, the “Fold change 11808 (PI)” value with ARP clone 11808 (PI) came out at 0.8.

For the molecule `COc1ccnc(-c2nc(O)c(O)c(C(=O)N[C@H](C)C3CCCCC3)n2)c1` [Compound 28, (R)-N-(1-cyclohexylethyl)-5,6-dihydroxy-2-(4-methoxypyridin-2-yl)pyrimidine-4-carboxamide], in series [1], the “Proliferation assay PBMC TD50” value is 2.7 µM and the “TD50” value was determined as 2.7 µM. For the same molecule, in series [2] (setting [3]), the IC50 was found to be 34300 nM. Further, the “Proliferation assay HELA TD50” value in the series on HeLa cells came to 2.8609 µM. Further, in the series with ARP clone 7400 (NRTI), the “Fold change 7400 (NRTI)” value was 0.8. In addition, in the series with ARP clone 12231 (NNRTI), the “Fold change 12231 (NNRTI)” value was 2.8. Further, in the series on ARP clone 11842 (INI), the “Fold change 11842 (INI)” value is 2.9. Besides, the “Fold change 11808 (PI)” value in the series with ARP clone 11808 (PI) was 1.4.

As to `C[C@@H](NC(=O)c1nc(-c2nccc3ccccc23)nc(O)c1O)C1CCCCC1` [Compound 31, (R)-N-(1-cyclohexylethyl)-5,6-dihydroxy-2-(isoquinolin-1-yl)pyrimidine-4-carboxamide], in series [1], the “Proliferation assay PBMC TD50” value was determined as 5 µM and the “TD50” value was found to be 5 µM. The concentration for half-maximal inhibition (IC50) in series [2] (setting [3]) was over 50000 nM. For the same molecule, in the series on HeLa cells, the “Proliferation assay HELA TD50” value worked out at 2.0709 µM. The “Fold change 7400 (NRTI)” value in the series on ARP clone 7400 (NRTI) is recorded as 0.7. Also, the “Fold change 12231 (NNRTI)” value with ARP clone 12231 (NNRTI) is 2.0. Besides, the “Fold change 11842 (INI)” value in the series with ARP clone 11842 (INI) came out at 9.8. Also, the “Fold change 11808 (PI)” value in the series with ARP clone 11808 (PI) was 1.6.

Turning to `C[C@@H](NC(=O)c1nc(-c2ncccc2C(F)(F)F)nc(O)c1O)C1CCCCC1` [Compound 30, (R)-N-(1-cyclohexylethyl)-5,6-dihydroxy-2-(3-(trifluoromethyl)pyridin-2-yl)pyrimidine-4-carboxamide], the “Proliferation assay PBMC TD50” value in series [1] worked out at 5.4 µM. Moreover, in series [2] (Human immunodeficiency virus 1, NL43, TZM-bl cells, NL4-3, 48 hours, read-out: Mono Cycle IC50), the IC50 is over 50000 nM. Besides, in the series on HeLa cells, the “Proliferation assay HELA TD50” value was over 50 µM.

The record behind these values is patent EP3290412A1, “HIV-1 NUCLEOCAPSID INHIBITORS” (Università degli Studi di Siena, priority 2016, dated 2018).
